{"source": "patent US7205343B2", "about": "“Stabilized bioactive preparations and method of use” (priority 1997, dated 2007)", "key": {"Streptococcus pneumoniae": {"tested_on": "Streptococcus pneumoniae", "experiment": "Acute pneumonia model, survival after antibiotic treatment", "format": "in vivo, Male Wistar rats", "settings": "rats inoculated intratracheally with 10^9 cfu S. pneumoniae; 10 mg ampicillin intramuscular one day after inoculation", "source_text": "Male Wistar rats […] were inoculated intratracheally with 10^9 colony forming units of Streptococcus pneumoniae. The model is an acute pneumonia model with 100% of untreated control animals dying within 4 days of inoculation."}, "[1]": {"set-up": "species or system rats", "settings": "Wistar, rat, in vivo", "protocol": "Ampicillin concentrations in lung tissue and serum were measured for the two treatment groups in Example XV by a bioassay method. In this method, 60 μl of lung tissue homogenate, or serum obtained from the rats at various points after dosing is placed on a sterile disk. The desk is them placed on an agar plate covered with S. pneumoniae and incubated for 24 hr. […] The no-growth zones were quantitated, and concentrations of antibiotic were calculated based on a standard curve."}, "[2]": {"experiment": "Surfactant adsorption/spreading at the air/water interface", "format": "physicochemical", "source_text": "Stabilized dispersions formed according to the present invention provide for enhanced surfactant spreading at the pulmonary air/water interface. In this regard, the equilibrium surface tension of dimyristoylphosphatidylcholine is ca. 22 mN/m. […] The slow adsorption for liposomes is due to the slow molecular diffusion of DMPC through the water phase. […] This rapid spreading and reduction of surface tension is indicative of what would occur upon contacting the perforated microstructures with a wetted pulmonary membrane."}, "serum glucose": {"tested_on": "serum glucose", "experiment": "Serum glucose levels after LDI or IM insulin administration", "format": "in vivo", "settings": "fasting rabbits", "protocol": "In the case of LDI administration, rabbits were anesthetized, intubated, placed on a respirator, and their lungs were instilled with ca. 4.5 ml/kg of perflubron. […] Control animals were injected IM with a similar dose of insulin (Humulin R)."}, "[3]": {"experiment": "Plasma insulin pharmacokinetics after LDI or IM administration (radioimmunoassay)", "format": "in vivo", "settings": "fasting rabbits"}, "[4]": {"experiment": "Gentamicin biodistribution in lung lobes by immunoassay", "format": "in vivo, New Zealand white rabbits", "settings": "rabbits; 5 mg/kg; one hour post-administration", "source_text": "Individual lobes of the lungs were collected and analyzed quantitatively for gentamicin by an immunoassay method. […] Excellent biodistribution across the lung lobes was observed following either IM or LDI administration."}}, "data": [{"molecule": "CC1(C)S[C@@H]2[C@H](NC(=O)[C@H](N)c3ccccc3)C(=O)N2[C@H]1C(=O)O", "note": "[Ampicillin]", "values": [{"measurement": "animals surviving to 10 days", "setting": "Streptococcus pneumoniae", "value": 27, "unit": "%"}, {"measurement": "local lung concentrations with LDI delivery relative to IM", "setting": "[1]", "value": 250, "unit": "times higher"}, {"measurement": "persistence of local lung concentrations with LDI delivery", "setting": "[1]", "value": "persisted for several days"}, {"measurement": "persistence of serum levels following LDI administration", "setting": "[1]", "value": "at least 4 hours"}, {"measurement": "serum ampicillin levels following IM administration", "setting": "[1]; 2 h", "value": "undetectable"}]}, {"molecule": "CCCCCCCCCCCCCC(=O)OC[C@H](COP(=O)([O-])OCC[N+](C)(C)C)OC(=O)CCCCCCCCCCCCC", "note": "[DMPC, dimyristoylphosphatidylcholine]", "values": [{"measurement": "equilibrium surface tension", "setting": "[2]", "value": "ca. 22 mN/m"}]}, {"molecule": "Human Insulin", "values": [{"measurement": "Serum glucose level", "setting": "serum glucose; IM Humulin R, 0 min", "value": 184.2, "unit": "mg/dL"}, {"measurement": "Serum glucose level", "setting": "serum glucose; IM Humulin R, 5 min", "value": 253.6, "unit": "mg/dL"}, {"measurement": "Serum glucose level", "setting": "serum glucose; IM Humulin R, 10 min", "value": 256.0, "unit": "mg/dL"}, {"measurement": "Serum glucose level", "setting": "serum glucose; IM Humulin R, 15 min", "value": 216.8, "unit": "mg/dL"}, {"measurement": "Serum glucose level", "setting": "serum glucose; IM Humulin R, 30 min", "value": 168.2, "unit": "mg/dL"}, {"measurement": "Serum glucose level", "setting": "serum glucose; IM Humulin R, 60 min", "value": 82.0, "unit": "mg/dL"}, {"measurement": "Serum glucose level", "setting": "serum glucose; IM Humulin R, 90 min", "value": 48.2, "unit": "mg/dL"}, {"measurement": "Serum glucose level", "setting": "serum glucose; IM Humulin R, 120 min", "value": 18.0, "unit": "mg/dL"}, {"measurement": "Serum glucose level", "setting": "serum glucose; IM Humulin R, 150 min", "value": 29.4, "unit": "mg/dL"}, {"measurement": "Serum glucose level", "setting": "serum glucose; IM Humulin R, 180 min", "value": 28.8, "unit": "mg/dL"}, {"measurement": "Serum glucose level", "setting": "serum glucose; IM Humulin R, 240 min", "value": 29.4, "unit": "mg/dL"}, {"measurement": "Serum glucose level", "setting": "serum glucose; IM Humulin R, 360 min", "value": 115.8, "unit": "mg/dL"}, {"measurement": "Serum glucose level", "setting": "serum glucose; LDI Example XI formulation in perflubron, 0.86 IU/kg, 0 min", "value": 175.7, "unit": "mg/dL"}, {"measurement": "Serum glucose level", "setting": "serum glucose; LDI Example XI formulation in perflubron, 0.86 IU/kg, 5 min", "value": 218.8, "unit": "mg/dL"}, {"measurement": "Serum glucose level", "setting": "serum glucose; LDI Example XI formulation in perflubron, 0.86 IU/kg, 10 min", "value": 211.7, "unit": "mg/dL"}, {"measurement": "Serum glucose level", "setting": "serum glucose; LDI Example XI formulation in perflubron, 0.86 IU/kg, 15 min", "value": 198.2, "unit": "mg/dL"}, {"measurement": "Serum glucose level", "setting": "serum glucose; LDI Example XI formulation in perflubron, 0.86 IU/kg, 30 min", "value": 143.3, "unit": "mg/dL"}, {"measurement": "Serum glucose level", "setting": "serum glucose; LDI Example XI formulation in perflubron, 0.86 IU/kg, 60 min", "value": 83.2, "unit": "mg/dL"}, {"measurement": "Serum glucose level", "setting": "serum glucose; LDI Example XI formulation in perflubron, 0.86 IU/kg, 90 min", "value": 38.2, "unit": "mg/dL"}, {"measurement": "Serum glucose level", "setting": "serum glucose; LDI Example XI formulation in perflubron, 0.86 IU/kg, 120 min", "value": 31.2, "unit": "mg/dL"}, {"measurement": "Serum glucose level", "setting": "serum glucose; LDI Example XI formulation in perflubron, 0.86 IU/kg, 150 min", "value": 31.7, "unit": "mg/dL"}, {"measurement": "Serum glucose level", "setting": "serum glucose; LDI Example XI formulation in perflubron, 0.86 IU/kg, 180 min", "value": 33.4, "unit": "mg/dL"}, {"measurement": "Serum glucose level", "setting": "serum glucose; LDI Example XI formulation in perflubron, 0.86 IU/kg, 240 min", "value": 49.2, "unit": "mg/dL"}, {"measurement": "Cmax", "setting": "[3]; IM, Humulin R, dose similar to 0.86 IU/kg, plasma insulin", "value": 110.5, "unit": "μU/ml"}, {"measurement": "AUC", "setting": "[3]; IM, Humulin R, plasma insulin", "value": 20770, "unit": "μU min/ml"}, {"measurement": "Tmax", "setting": "[3]; IM, Humulin R, plasma insulin", "value": 1, "unit": "h"}, {"measurement": "AUC", "setting": "[3]; LDI (4.5 ml/kg perflubron), Example XI formulation, 0.86 IU/kg", "value": 11100, "unit": "μU min/ml"}, {"measurement": "Cmax", "setting": "[3]; LDI (4.5 ml/kg perflubron), Example XI formulation, 0.86 IU/kg, plasma insulin", "value": 210.4, "unit": "μU/ml"}]}, {"molecule": "gentamicin", "values": [{"measurement": "lung gentamicin concentrations following LDI relative to IM", "setting": "[4]", "value": "ca. 2 orders of magnitude higher"}]}]}
